Earlier results in patent US8980889B2, “Pyrazole derivative” (Mochida Pharmaceutical Co., Ltd., priority 2013, dated 2015).

Key:
Conditions in all cases: U.S. Patent Application No. 2003/0032579
rat brain = test system: rat brain
rat = test system: rat
rats = test system: rats

Compound: COc1ccc(Cc2nccc3cc(OC)c(OC)cc23)cc1OC [papaverine]
- dopamine level in the rat brain (rat brain): decreases
- haloperidol-induced catalepsy (rat): increases
- apomorphine-induced stereotypy (rats): decreases
